Reference: the supplement of paper PMC10627819

Key:
[1] = system: S. pneumoniae D39V; assay: fitness (endpoint OD595 vs no drug) (fraction); higher = more growth
Procedure, shortened: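 Fitness expresses the optical density reached at the stationary-phase transition as a fraction of the robust mean of no-drug control wells. It is capped at 1. Measurements were OD595 every 30 min for 14 h at 37 °C after inoculation of 384-well plates at OD595 0.01 (30 µl, or 55 µl for S. pneumoniae), minus the first reading.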

[2] = system: B. subtilis 168; assay: Bliss interaction score (quartile over a dose matrix) (fitness difference); higher = more antagonism (negative = synergy)
Procedure, shortened: (§1)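 The Bliss score was calculated by subtracting the expected fitness, the product of single-drug values, from the observed fitness. OD595 at entry into stationary phase, over the plate's robust no-drug mean and capped at 1, served as the fitness readout. Single-drug values were inferred from combination data, and scores are summarised by quartiles across technical, biological and donor/recipient replicates.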

[3] = system: S. aureus DSM 20231; assay: as above
Procedure, shortened: as §1

[4] = system: S. aureus Newman; assay: as above
Procedure, shortened: as §1

[5] = system: S. pneumoniae D39V; assay: as above
Procedure, shortened: as §1
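For Bliss interaction score (quartile over a dose matrix) in this document: first quartile when negative (synergy) and third quartile when positive (antagonism).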

O=C(O[C@@H]1Cc2c(O)cc(O)cc2O[C@@H]1c1cc(O)c(O)c(O)c1)c1cc(O)c(O)c(O)c1 [EGCG] + Clc1ccc(COC(Cn2ccnc2)c2ccc(Cl)cc2Cl)c(Cl)c1 [Miconazole]
fitness, [1]
Details	partner 1.073 µg/mL	partner 1.25 µg/mL	partner 2.145 µg/mL	partner 2.5 µg/mL	partner 4.29 µg/mL	partner 5 µg/mL
first compound 12.5 µg/mL	0.956	0.913	≥ 1	0.805	0.824	0.858
first compound 25 µg/mL	0.983	≥ 1	≥ 1	0.923	0.834	0.89
first compound 50 µg/mL	0.987	0.952	0.984	0.86	0.98	0.933

Details	Bliss interaction score
[2]	-0.0649
[3]	0.278
[4]	0.167
[5]	0.0773

O=C(O[C@@H]1Cc2c(O)cc(O)cc2O[C@@H]1c1cc(O)c(O)c(O)c1)c1cc(O)c(O)c(O)c1 [EGCG] + O=C1CN(/N=C/c2ccc([N+](=O)[O-])o2)C(=O)N1 [Nitrofurantoin]
fitness, [1]
Details	partner 1.285 µg/mL	partner 2 µg/mL	partner 2.57 µg/mL	partner 4 µg/mL	partner 8 µg/mL
first compound 12.5 µg/mL	0.914	0.858	0.938	0.832	0.558
first compound 25 µg/mL	0.949	0.878	0.924	0.891	0.571
first compound 50 µg/mL	0.954	≥ 1	0.951	0.802	0.566

[1], partner 5.14 µg/mL, one replicate
Details	fitness
first compound 12.5 µg/mL	0.917
first compound 25 µg/mL	0.901
first compound 50 µg/mL	0.921

Details	Bliss interaction score
[2]	0.106
[3]	0.103
[4]	0.0864
[5]	0.0733

C[C@@H](O)[C@H]1C(=O)N2C(C(=O)O)=C(SCCNC=N)C[C@H]12 [Imipenem] + C/C(=C\C(=O)OCCCCCCCCC(=O)O)C[C@@H]1OC[C@H](C[C@@H]2O[C@H]2[C@@H](C)[C@H](C)O)[C@@H](O)[C@H]1O [Pseudomonic acid]
fitness, [1]
Details	first compound 0.005 µg/mL	first compound 0.0065 µg/mL	first compound 0.01 µg/mL	first compound 0.013 µg/mL	first compound 0.02 µg/mL	first compound 0.026 µg/mL
partner 0.03 µg/mL	0.897	0.799	0.896	0.889	0.917	0.89
partner 0.06 µg/mL	0.772	–	0.799	0.7	0.77	0.688
partner 0.12 µg/mL	0.578	0.439	0.583	0.479	0.583	0.504

Details	Bliss interaction score
[2]	0.12
[3]	0.0093
[4]	0.0109
[5]	-0.146

C[C@@H](O)[C@H]1C(=O)N2C(C(=O)O)=C(SCCNC=N)C[C@H]12 [Imipenem] + CC1=C\[C@@H](O)CC(=O)Cc2nc(co2)C(=O)N2CCC=C2C(=O)O[C@H](C(C)C)[C@H](C)/C=C/C(=O)NC\C=C\1 [Virginiamycin M1]
fitness, [1], one replicate
Details	partner 0.15 µg/mL	partner 0.3 µg/mL	partner 0.5 µg/mL	partner 1 µg/mL
first compound 0.005 µg/mL	0.993	0.88	0.978	0.979
first compound 0.01 µg/mL	≥ 1	0.995	0.97	≥ 1
first compound 0.02 µg/mL	0.988	0.901	0.978	≥ 1

fitness, [1]
Details	first compound 0.005 µg/mL	first compound 0.0065 µg/mL	first compound 0.01 µg/mL	first compound 0.013 µg/mL	first compound 0.02 µg/mL	first compound 0.026 µg/mL
partner 0.5 µg/mL	–	0.992	–	0.999	–	0.964
partner 1 µg/mL	–	0.983	–	≥ 1	–	0.978
partner 2 µg/mL	0.893	0.983	0.88	–	0.888	0.891

Details	Bliss interaction score
[2]	0.0502
[3]	0.0515
[4]	-0.0199
[5]	0.0822

C[C@@H](O)[C@H]1C(=O)N2C(C(=O)O)=C(SCCNC=N)C[C@H]12 [Imipenem] + CC(=O)NC[C@H]1CN(c2ccc(N3CCOCC3)c(F)c2)C(=O)O1 [Linezolid]
fitness, [1]
Details	first compound 0.005 µg/mL	first compound 0.0065 µg/mL	first compound 0.01 µg/mL	first compound 0.013 µg/mL	first compound 0.02 µg/mL	first compound 0.026 µg/mL
partner 0.105 µg/mL	0.845	–	0.837	–	0.833	–
partner 0.2 µg/mL	–	0.7	–	0.775	–	0.71
partner 0.21 µg/mL	0.752	–	0.727	–	0.701	–
partner 0.4 µg/mL	–	0.506	–	0.592	–	0.494
partner 0.42 µg/mL	0.6	–	0.47	–	0.578	–
partner 0.8 µg/mL	–	0.116	–	0.225	–	0.148

Details	Bliss interaction score
[2]	0.128
[3]	0.0377
[4]	0.0656
[5]	-0.109
